Experimental data published in patent US20080193566A1, “Use of high dose concentrations of gaseous nitric oxide” (priority 2007, published 2008).

How the values were obtained:
[1] = tested on: A549-epithelial lung carcinoma cells; experiment: MTS proliferation assay, A549 cells exposed to 200 or 350 ppm gNO (Example 1); format: cell-based, human; set-up: MTS assay reading, Average / MTS assay reading, Corrected Average: unit not given here; details: for MTS assay reading, Corrected Average: blank subtracted; for Survival: vs air control
Experimental: The purpose of this example is to illustrate the effect of continuous gaseous nitric oxide (gNO) 200 ppm and 350 ppm compared to air (control) on the survival of a representative line of cancer cells. Cancer cell lines (A549-epithelial lung carcinoma cells and H460-epithelial metastatic; large cell lung cancer cells) were prepared in F12 medium and suspended in six 96-well plates (3 treatment and 3 controls). […] The plates then were removed and cell viability assessed by an MTS proliferation assay.
(§1) When exposed to 350 ppm of gNO, however, cancer cell survival rates decrease dramatically.

[2] = tested on: H460-epithelial metastatic; large cell lung cancer cells; experiment: MTS proliferation assay, H460 cells exposed to 350 ppm gNO (Example 1); format: cell-based, human; details: 350 ppm NO, 2 hours, RPMI medium
From the text: The purpose of this example is to illustrate the effect of continuous gaseous nitric oxide (gNO) 200 ppm and 350 ppm compared to air (control) on the survival of a representative line of cancer cells. […] […] The plates then were removed and cell viability assessed by an MTS proliferation assay.
as §1

[3] = tested on: Staphylococcus aureus; experiment: S. aureus on blood agar plates exposed to 25,000 ppm gNO (Example 2); format: cell-based
From the text: The purpose of this example is to observe the possibility of a novel bactericidal high dose (25,000 ppm) effect of gaseous nitric oxide (gNO) on an ATCC strain of Staphylococcous aureus plated on a blood agar media and determine a time effect of this dosage.
A closed environment treatment chamber was used (see, “A direct nitric oxide gas delivery system for bacterial and mammalian cell cultures,” A. Ghaffari, D. H. Neil, A. Ardakani, J. Road, A. Ghahary, C. C. Miller. Nitric Oxide 12(3):129-140, 2005, herein incorporated by reference in its entirety). The following steps were performed: • 1. Calibrated the AeroNOx analyzer as per standard procedure. • 2. Calibrated the closed environment treatment chamber as per standard procedure. • 3. In a 50 mL tube, known Staphylococcus aureus bacteria in 10 mL Nutrient Broth was grown overnight or for about 12 hours in a shaker incubator. • 4. Measured optical density of grown Staphylococcus aureus using a spectrophotometer set at 600 nm. Used original nutrient broth as a blank. O.D. should be 1.0±10%. • 5. Turned on closed environment treatment chamber. • 6. Labeled three plates: Air, NO+1 minute, NO+3 minutes. • 7. Immersed a sterile cotton swab into the bacterial mixture in the 50 mL tube and shaked off excess liquid. • 8. Swiped one plate entirely in two directions with the swab. • 9. […] After incubation, recorded results with digital pictures. • 14. […]

[4] = tested on: non-small cell lung cancer (NSCLC) cells lines; experiment: MTS cell proliferation assay, 25,000 ppm gNO (Example 4), NSCLC cell line panel; format: cell-based, human; details: between 6 and 9 minutes, all five cancer cell lines
From the text: The purpose of this example is to illustrate the tumorcidal activity of high-dosage gNO. We examined the cellular sensitivity to 25,000 ppm of gNO on 5 non-small cell lung cancer (NSCLC) cells lines by an MTS cell proliferation assay.
Human lung cancer cell lines A549, NCI-H23, NCI-H460, HTB-58, H2170, and H441 (commercially available from American Type Culture Collection (“ATCC”), Manassas, Va.) were maintained in culture medium recommended by ATCC. All media were supplemented with 1% penicillin/streptomycin and 10% fetal bovine serum (commercially available from Invitrogen Gibco-BRL, Burlington, Ontario, Canada). […]
After 24 hours, the A549, NCI-H23, NCI-H460, HTB-58, H2170 and H441 cells were treated with 25,000 ppm gNO or air (control) for 1 minute, 3 minutes, 6 minutes, 9 minutes, 10 minutes, 20 minutes, and 30 minutes. Immediately following treatment, the viability of the cells was determined using a colorimetric MTS (3-(4,5-dimethylthiazol-2-yl)-5-(3-carboxymethoxyphenyl)-2-(4-sulfophenyl)-2H-tetrazolium, inner salt) cell proliferation assay (commercially available as the CellTiter 96® Aqueous One Solution Cell Proliferation Assay (MTS) from Promega, Madison, Wis., USA) according to the manufacturer's protocol. […] Absorbance was measured at 490 nm for each well using a micro-plate reader (commercially available from Dynex Technologies, Chantilly, Va., USA). […]

[5] = Viability after 25,000 ppm gNO (Example 5), NHBE; format: cell-based; details: human, normal human bronchial epithelial cells (NHBE)
Experimental: (§2) The purpose of this example is to illustrate the effects on normal human cell lines compared to the effects on cancerous cell lines of high-dosage gNO.
(§3) The above study was repeated. In addition to the A549, NCI-H23, NCI-H460, HTB-58, H2170 and H441 cells, four other cell lines were added—normal human bronchial epithelial cells (NHBE), normal human endothelial lung vascular cells (NHVE), normal human fibroblast cells (NHLF), and a squamous lung cancer cell line (H2170).
(§4) FIG. 8, embodiments A, B, C, and D, illustrate the viability of thee three normal human cell lines and one cancerous cell line to which 25,000 ppm gNO is administered for up to 15 minutes. The NHBE cells (embodiment A), experienced a decrease in viability after only 6 minutes of 25,000 ppm gNO administration, resulting in a viability of less than 10%. The NHVE cells (embodiment B) experienced a decrease in viability after only 6 minutes of 25,000 ppm gNO administration, resulting in a viability of less than 10%. The NHLF cells (embodiment C) also experienced a decrease in viability after only 6 minutes of 25,000 ppm gNO administration, resulting in a viability of about 30%. The H2170 cancerous cells experienced a dramatic decrease in viability after only 6 minutes of 25,000 ppm gNO administration, resulting in a viability of less than 10%.

[6] = Viability after 25,000 ppm gNO (Example 5), NHVE; format: cell-based; details: human, normal human endothelial lung vascular cells (NHVE)
Experimental: as §2, §3, §4

[7] = Viability after 25,000 ppm gNO (Example 5), NHLF; format: cell-based; details: human, normal human lung fibroblast cells (NHLF)
Experimental: as §2, §3, §4

[8] = tested on: cancer cell lines; experiment: Viability after 25,000 ppm gNO (Example 5, repeat), cancer cell line panel; format: cell-based, human; details: between about 6 and about 9 minutes, all five cancer cell lines, repeat study
Experimental: as §2, §3

[9] = 200 ppm NO, 1 hour, HBSS medium
[10] = 200 ppm NO, 2.5 hours, F12 medium
[11] = 200 ppm NO, 2.5 hours, HBSS medium
[12] = 200 ppm NO, 3.5 hours, F12 medium
[13] = 200 ppm NO, 3.5 hours, HBSS medium
[14] = 350 ppm NO, 2 hours, F12 medium

[N]=O [gNO, nitric oxide]
MTS assay reading, Average ([1]; 200 ppm NO, 1 hour, F12 medium): 0.852 | MTS assay reading, Corrected Average ([1]; 200 ppm NO, 1 hour, F12 medium): 0.621 | Survival ([1]; 200 ppm NO, 1 hour, F12 medium): about 92% | MTS assay reading, Average [1, 9]: 0.06 | MTS assay reading, Corrected Average [1, 9]: 0 | MTS assay reading, Average [1, 10]: 1.276 | MTS assay reading, Corrected Average [1, 10]: 0.918 | Survival [1, 10]: about 90% | MTS assay reading, Average [1, 11]: 0.06 | MTS assay reading, Corrected Average [1, 11]: 0 | MTS assay reading, Average [1, 12]: 1.529 | MTS assay reading, Corrected Average [1, 12]: 1.059 | Survival [1, 12]: about 87% | MTS assay reading, Average [1, 13]: 0.061 | MTS assay reading, Corrected Average [1, 13]: 0 | MTS assay reading, Average [1, 14]: 0.110 | MTS assay reading, Corrected Average [1, 14]: 0.009 | MTS assay reading, Average [2]: 0.158 | MTS assay reading, Corrected Average ([2]; blank subtracted): 0.037 | plate appearance after incubation (FIG. 4) ([3]; 1 minute of exposure): still shows signs of the S. aureus | plate appearance after incubation (FIG. 5) ([3]; 3 minutes of exposure): no signs of the S. aureus | cells killed [4]: 75-95% | viability at 6 min, 25000 ppm [5]: < 10% | viability at 6 min, 25000 ppm [6]: < 10% | viability at 6 min, 25000 ppm ([7]; 6 minutes): ~30% | viability at 15 min, 25000 ppm ([7]; after 15 minutes of exposure): 30% | cells killed [8]: 75-95%
